From ChEMBL document CHEMBL1201862, “PubChem BioAssay data set” (2004)
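Cells were grown in 96-well plates and exposed to each compound for 48 hours at five concentrations; endpoints were interpolated linearly between bracketing concentrations, or set to the highest concentration if not reached. GI50: concentration for 50% inhibition of growth.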 Calls of active or inactive are those of the source. No stated cut-off is given here; in the data, active = GI50 up to about 1.1 µM and inactive = higher.

Assays:
Test in all cases: NCI-60 cell line screen, 48 h
[1] = tested on: DMS-114
[2] = tested on: HOP-18
[3] = tested on: KM-20L2
[4] = tested on: M19-MEL
[5] = tested on: RXF 631
[6] = tested on: DLD-1
[7] = tested on: DMS-273
[8] = tested on: LXFL 529
[9] = tested on: XF498

SMILES: C1CCNCC1.S=C(S)N1CCCCC1
- GI50 [1]: 0.24 µM (active)
- GI50 [2]: 100 µM (inactive)
- GI50 [3]: 100 µM (inactive)
- GI50 [4]: 0.685 µM (active)
- GI50 [5]: 4.43 µM (inactive)

SMILES: CCOc1ccc(C2=NN(CC)C(=O)C(C3C(=O)N(c4ccccc4)N=C3C)C2)cc1 (stereo unspecified)
- GI50 [6]: > 100 µM (inactive)
- GI50 [1]: > 100 µM (inactive)
- GI50 [7]: > 100 µM (inactive)
- GI50 [2]: > 100 µM (inactive)
- GI50 [3]: > 100 µM (inactive)
- GI50 [8]: > 100 µM (inactive)
- GI50 [4]: > 100 µM (inactive)
- GI50 [9]: > 100 µM (inactive)

SMILES: COC(=O)C1=C(c2cc(OC)c(OC)c(OC)c2)OC(c2ccc3c(c2)OCO3)C1 (stereo unspecified)
- GI50 [6]: 23 µM (inactive)
- GI50 [1]: 13.9 µM (inactive)
- GI50 [7]: 25.4 µM (inactive)
- GI50 [2]: > 100 µM (inactive)
- GI50 [3]: 19.7 µM (inactive)
- GI50 [8]: 25.3 µM (inactive)
- GI50 [4]: 21.1 µM (inactive)

SMILES: N#CC(C(=O)/C(=N\NC(N)=O)C(C#N)c1ccc(Cl)cc1)c1ccc(Cl)cc1 (stereo unspecified)
- GI50 [6]: > 100 µM (inactive)
- GI50 [1]: > 100 µM (inactive)
- GI50 [2]: > 100 µM (inactive)
- GI50 [3]: > 100 µM (inactive)
- GI50 [8]: > 100 µM (inactive)
- GI50 [4]: > 100 µM (inactive)
- GI50 [5]: > 100 µM (inactive)
- GI50 [9]: > 100 µM (inactive)

SMILES: CCOC(=O)CN1C(=O)c2cc([N+](=O)[O-])cc3cc([N+](=O)[O-])cc(c23)C1=O
- GI50 [6]: 5.86 µM (inactive)
- GI50 [1]: 57.7 µM (inactive)
- GI50 [7]: > 100 µM (inactive)
- GI50 [2]: > 100 µM (inactive)
- GI50 [3]: 50.8 µM (inactive)
- GI50 [8]: 12.3 µM (inactive)
- GI50 [4]: 30.1 µM (inactive)
- GI50 [5]: 50.7 µM (inactive)
- GI50 [9]: > 100 µM (inactive)

SMILES: c1ccc(C2(c3ccccc3)SSC3(S2)C2CC4CC(C2)CC3C4)cc1 (stereo unspecified)
- GI50 [6]: > 100 µM (inactive)
- GI50 [1]: > 100 µM (inactive)
- GI50 [3]: > 100 µM (inactive)
- GI50 [8]: > 100 µM (inactive)

SMILES: Cc1cn(C2CC(OC3CCCCO3)C(CO)O2)c(=O)[nH]c1=O (stereo unspecified)
- GI50 [6]: > 100 µM (inactive)
- GI50 [7]: > 100 µM (inactive)
- GI50 [2]: > 100 µM (inactive)
- GI50 [3]: > 100 µM (inactive)
- GI50 [8]: > 100 µM (inactive)
- GI50 [4]: > 100 µM (inactive)
- GI50 [9]: > 100 µM (inactive)

SMILES: O=C(CCc1n[nH]c(=S)o1)Nc1cc(Cl)ccc1Cl
- GI50 [6]: 79.3 µM (inactive)
- GI50 [7]: 19.1 µM (inactive)
- GI50 [2]: > 100 µM (inactive)
- GI50 [3]: 48.2 µM (inactive)
- GI50 [8]: 76.4 µM (inactive)
- GI50 [4]: > 100 µM (inactive)

SMILES: CC(C)C(/C=C/c1ccc(Br)cc1)=N\NC(N)=O
- GI50 [6]: > 100 µM (inactive)
- GI50 [1]: > 100 µM (inactive)
- GI50 [7]: > 100 µM (inactive)
- GI50 [3]: > 100 µM (inactive)
- GI50 [8]: 56.4 µM (inactive)
- GI50 [4]: 12.2 µM (inactive)
- GI50 [9]: > 100 µM (inactive)

SMILES: CNC(=S)NC1CCCCC1NC(=S)NC (stereo unspecified)
- GI50 [6]: > 100 µM (inactive)
- GI50 [1]: > 100 µM (inactive)
- GI50 [7]: > 100 µM (inactive)
- GI50 [2]: > 100 µM (inactive)
- GI50 [3]: > 100 µM (inactive)
- GI50 [8]: > 100 µM (inactive)
- GI50 [4]: > 100 µM (inactive)
- GI50 [5]: > 100 µM (inactive)
- GI50 [9]: > 100 µM (inactive)

SMILES: CN(C)CC1CCC/C1=N\O (stereo unspecified)
- GI50 [6]: > 100 µM (inactive)
- GI50 [7]: > 100 µM (inactive)
- GI50 [2]: > 100 µM (inactive)
- GI50 [3]: > 100 µM (inactive)
- GI50 [8]: > 100 µM (inactive)
- GI50 [4]: > 100 µM (inactive)

SMILES: Nc1ncnc2c1ncn2CCOC(c1ccccc1)P(=O)(O)O (stereo unspecified)
- GI50 [6]: > 100 µM (inactive)
- GI50 [7]: > 100 µM (inactive)
- GI50 [3]: > 100 µM (inactive)
- GI50 [8]: > 100 µM (inactive)
- GI50 [4]: > 100 µM (inactive)

SMILES: CC12CC3C(CC1SCC(=O)O2)C3(C)C (stereo unspecified)
- GI50 [6]: > 100 µM (inactive)
- GI50 [1]: > 100 µM (inactive)
- GI50 [7]: > 100 µM (inactive)
- GI50 [2]: > 100 µM (inactive)
- GI50 [8]: > 100 µM (inactive)
- GI50 [4]: > 100 µM (inactive)
- GI50 [9]: > 100 µM (inactive)

SMILES: O=C(O)/C(Cl)=C(\Cl)C(=O)NC1C2CC3CC(C2)CC1C3 (stereo unspecified)
- GI50 [6]: > 100 µM (inactive)
- GI50 [1]: > 100 µM (inactive)
- GI50 [7]: > 100 µM (inactive)
- GI50 [2]: > 100 µM (inactive)
- GI50 [3]: > 100 µM (inactive)
- GI50 [8]: > 100 µM (inactive)
- GI50 [4]: > 100 µM (inactive)
- GI50 [5]: 61 µM (inactive)
- GI50 [9]: > 100 µM (inactive)

SMILES: O=C(N/C(=C\c1cccc([N+](=O)[O-])c1)c1nc2ccccc2[nH]1)c1ccccc1
- GI50 [6]: 55.5 µM (inactive)
- GI50 [1]: 26.7 µM (inactive)
- GI50 [7]: 69.2 µM (inactive)
- GI50 [3]: 43.8 µM (inactive)
- GI50 [8]: 26.1 µM (inactive)
- GI50 [4]: 62.8 µM (inactive)
- GI50 [9]: 27.7 µM (inactive)

SMILES: CC(=O)Nc1ccc(-c2nnc(SCC(=O)Nc3ccc([N+](=O)[O-])cc3)o2)cc1
- GI50 [6]: 11.9 µM (inactive)
- GI50 [1]: 3.3 µM (inactive)
- GI50 [7]: 10.6 µM (inactive)
- GI50 [2]: 16.4 µM (inactive)
- GI50 [3]: 14.4 µM (inactive)
- GI50 [8]: 7.93 µM (inactive)
- GI50 [4]: 13.5 µM (inactive)

SMILES: CCc1ccc(/C(C)=N/NC(N)=S)cc1
- GI50 [1]: 48.9 µM (inactive)
- GI50 [2]: > 100 µM (inactive)
- GI50 [3]: > 100 µM (inactive)
- GI50 [4]: > 100 µM (inactive)
- GI50 [9]: 0.569 µM (active)

SMILES: CC1(C)OB(O)OC1(C)C
- GI50 [6]: > 100 µM (inactive)
- GI50 [1]: > 100 µM (inactive)
- GI50 [7]: > 100 µM (inactive)
- GI50 [2]: > 100 µM (inactive)
- GI50 [3]: > 100 µM (inactive)
- GI50 [8]: > 100 µM (inactive)
- GI50 [9]: > 100 µM (inactive)

SMILES: Cc1ccc(C2=C(c3ccc(C)cc3)C(c3ccc(C)cc3)=C(c3ccc(C)cc3)C2=O)cc1
- GI50 [6]: > 100 µM (inactive)
- GI50 [2]: > 100 µM (inactive)
- GI50 [3]: > 100 µM (inactive)
- GI50 [8]: > 100 µM (inactive)
- GI50 [4]: > 100 µM (inactive)
- GI50 [5]: > 100 µM (inactive)
- GI50 [9]: > 100 µM (inactive)

SMILES: CCOc1ccc2[nH]c3c(C)c4ccncc4c(C)c3c2c1
- GI50 [6]: 0.561 µM (active)
- GI50 [1]: 1.34 µM (inactive)
- GI50 [7]: 0.394 µM (active)
- GI50 [3]: 1.08 µM (active)
- GI50 [8]: 0.698 µM (active)
- GI50 [4]: 1.51 µM (inactive)
- GI50 [5]: 1.27 µM (inactive)
- GI50 [9]: 0.984 µM (active)

SMILES: COc1c(Br)cc(Br)c(OC)c1-c1ccc[nH]1
- GI50 [6]: 62.5 µM (inactive)
- GI50 [1]: 74.6 µM (inactive)
- GI50 [7]: 87.9 µM (inactive)
- GI50 [8]: > 100 µM (inactive)
- GI50 [4]: 91 µM (inactive)

SMILES: COC(=O)c1nc(-c2ccc(Cl)c(Cl)c2)nc2ccc(Cl)cc12
- GI50 [6]: > 100 µM (inactive)
- GI50 [1]: 13.8 µM (inactive)
- GI50 [7]: 81.1 µM (inactive)
- GI50 [3]: 21 µM (inactive)
- GI50 [8]: > 100 µM (inactive)
- GI50 [4]: > 100 µM (inactive)

SMILES: CCc1cccc(C)c1N1C(=O)C(=O)C(c2nc3ccccc3o2)/C(=N/NC(=S)NN)C1=O (stereo unspecified)
- GI50 [6]: > 100 µM (inactive)
- GI50 [1]: > 100 µM (inactive)
- GI50 [7]: > 100 µM (inactive)
- GI50 [3]: > 100 µM (inactive)
- GI50 [8]: > 100 µM (inactive)
- GI50 [4]: > 100 µM (inactive)
- GI50 [5]: > 100 µM (inactive)
- GI50 [9]: > 100 µM (inactive)

SMILES: C[Si](C)(C)/C=C\CCO
- GI50 [6]: > 100 µM (inactive)
- GI50 [1]: > 100 µM (inactive)
- GI50 [7]: > 100 µM (inactive)
- GI50 [2]: > 100 µM (inactive)
- GI50 [3]: > 100 µM (inactive)
- GI50 [8]: > 100 µM (inactive)
- GI50 [4]: > 100 µM (inactive)
- GI50 [5]: > 100 µM (inactive)
- GI50 [9]: > 100 µM (inactive)
